The nature of data set [1]: YEAK in serum of mice after IV or SC dosing, detected by anti-YEAK ELISA. It counts as in vivo. (An ELISA detects its analyte on a solid surface through an enzyme-linked reagent.)
The next data set concerns CCL22. Briefly: Acute release of CCL22 (MDC) in serum or plasma after SC YEAK administration in mice. It counts as in vivo.
For data set [2] the following is noted: various species, including man; cited from earlier work.
In data set [3] the test system is Ig fraction of rabbit polyserum. Briefly: ELISA with Ig fraction of rabbit polyserum. It counts as binding.
Data set [4] has as its system monocyte cell line RAW264.7. As to the kind of experiment: CCL22 release bioassay in the monocyte cell line RAW264.7. Type of data set: cell-based. The text has this:
Following synthesis of different DSP compositions, for example by solid phase synthesis or by solution phase synthesis, the individual lots or batches made by the same manufacturing process, and individual batches of mixtures manufactured by different processes may be tested and compared for variation using bioassays. Depending on the indication of the DSP composition, appropriate bioassays include the release of CCL22 by the monocyte cell line RAW264.7, ex vivo proliferation assays, and measuring the binding of serum proteins to peptides in the DSP composition. Using these bioassays, one may determine subsets of peptides or even individual peptides that are present in any given process or lot. Processes and lots of DSP compositions will be compared to determine whether the same subsets of peptides and/or types of peptides are consistently represented across the different processes and lots.

[5] abbreviates: mice dosed IV 4 mg/kg or SC 21 mg/kg, route for this value not stated.

We go through two substances from patent US20120282296A1, “METHODS FOR IMPROVING THE DESIGN, BIOAVAILABILITY, AND EFFICACY OF DIRECTED SEQUENCE POLYMER COMPOSITIONS VIA SERUM PROTEIN-BASED DETECTION OF DIRECTED SEQUENCE POLYMER COMPOSITIONS” (ARES TRADING SA, priority 2009, published 2012).

glatiramer acetate [Copaxone]: in data set [1] (setting [5]), the maximum serum concentration is given as 1800 ng/mL and the “time of maximum serum concentration post dosing” value is listed as “around 15 min”. The “detection in serum at 2 hours post-dosing” value in data set [1] (mice, 2 hours post-dosing) was “still detected”. Also, in the data set with CCL22, the “relation between dose administered SC and observed maximum CCL22 plasma concentration” value is given as “linear correlation”. Moreover, the “persistence in serum after subcutaneous administration” value in data set [2] is on record as “can be detected in serum of various species, including man, several hours after subcutaneous administration”. In data set [3], the “interaction with / recognition by Ig fraction of rabbit polyserum” value is “interacts strongly”. For the same substance, the “CCL22 release by RAW264.7 cells” value in data set [4] is “released CCL22 in a concentration dependent manner”.
Regarding plovamer [PI-2301], the “persistence in serum after subcutaneous administration” value in data set [2] is reported as “can be detected in serum of various species, including man, several hours after subcutaneous administration”.
